The values that follow come from patent US10238658B2, “1-pyrazolyl-3-(4-((2-anilinopyrimidin-4-yl) oxy) napththalen-1-yl) ureas as p38 MAP kinase inhibitors” (Respivert Limited, priority 2011, dated 2019).

Some results are limits rather than exact numbers.

What all share (format): cell-based
The subject of test [1] is HRV16. In words: HRV16 induced CPE in MRC5 cells. Conditions: Human rhinovirus sp., HRV16, MRC5, at 0.04 μg/mL; read-out: HRV CPE (MRC5) % inhibition. The procedure: The supernatants were aspirated, and then fresh media added followed by incubation for 4 days. Where appropriate, cells were pre-incubated with compound or DMSO for 2 hr, and the compounds and DMSO added again after washout of the virus.
The percentage inhibition for each well was calculated. The IC50 value was calculated from the concentration-response curve generated by the serial dilutions of the test compounds.

Test [2] deals with PBMC. In words: Cell mitosis assay. The note with it: Homo sapiens; for inhibition at 5 µg/mL: read-out: Mitosis Assay % inhibition in PBMC Cells at concn 5 μg/mL; for inhibition at 1 µg/mL: read-out: Mitosis Assay % inhibition in PBMC Cells at concn 1 μg/mL. The procedure: Peripheral blood mononucleocytes (PBMCs) from healthy subjects were separated from whole blood (Quintiles, London, UK) using a density gradient (Histopaque®-1077, Sigma-Aldrich, Poole, UK). The PBMCs (3 million cells per sample) were subsequently treated with 2% PHA (Sigma-Aldrich, Poole, UK) for 48 hr, followed by a 20 hr exposure to varying concentrations of test compounds. At 2 hr before collection, PBMCs were treated with demecolcine (0.1 μg/mL; Invitrogen, Paisley, UK,) to arrest cells in metaphase. To observe mitotic cells, PBMCs were permeabilised and fixed by adding Intraprep (50 μL; Beckman Coulter, France), and stained with anti-phospho-histone 3 ([…]; #9701; Cell Signalling, Danvers, Mass.) and propidium iodide (1 mg/mL; Sigma-Aldrich, Poole, UK,) as previously described (Muehlbauer P. A. and Schuler M. J., Mutation Research, 2003, 537:117-130). Fluorescence was observed using an ATTUNE flow cytometer (Invitrogen, Paisley, UK), gating for lymphocytes.

The subject of test [3] is IL-8. In words: Rhinovirus-induced IL-8 release in BEAS2B cells. Conditions: Homo sapiens, BEAS-2B, at 0.04 μg/mL; read-out: HRV IL-8 (BEAS2B) % inhibition. The procedure: Human rhinovirus RV16 was obtained from the American Type Culture Collection (Manassas, Va.). Viral stocks were generated by infecting Hela cells with HRV until 80% of the cells were cytopathic.
BEAS2B cells were infected with HRV at an MOI of 5 and incubated for 2 hr at 33° C. with gentle shaking for to promote absorption. The cells were then washed with PBS, fresh media added and the cells were incubated for a further 72 hr. The supernatant was collected for assay of IL-8 concentrations using a Duoset ELISA development kit (R&D systems, Minneapolis, Minn.). […]

Test [4] deals with IL-8. In words: LPS-induced IL-8 release in d-U937 cells. The note with it: Homo sapiens, dU937, dU937 cells. The procedure: (§1) U937 cells, a human monocytic cell line, were differentiated into macrophage-type cells by incubation with PMA (100 ng/mL) for 48 to 72 hr. Cells were pre-incubated with final concentrations of test compound for 2 hr and were then stimulated with LPS (0.1 μg/mL; from E. Coli: O111:B4, Sigma) for 4 hr. The supernatant was collected for determination of TNFα and IL-8 concentrations by sandwich ELISA (Duo-set, R&D systems). […] The relative 50% effective concentration (REC50) was determined from the resultant concentration-response curve. The inhibition of IL-8 production was calculated at each concentration of test compound by comparison with vehicle control.

The test system of test [5] is TNFα. Description: LPS-induced TNFα release in THP-1 cells. The note with it: Homo sapiens, THP-1, THP1 cells. The procedure:
THP-1 cells, a human monocytic cell line, were stimulated with 3 μg/mL of LPS (from E. Coli; 0111:B4, Sigma) for 4 hr and the supernatant collected for determination of the TNFα concentration by sandwich ELISA (Duo-set, R&D systems). The inhibition of TNFα production was calculated at each concentration by comparison with vehicle control.

The subject of test [6] is TNFα. Description: LPS-induced TNFα release in d-U937 cells. The note with it: Homo sapiens, dU937, dU937 cells; relative to 10 μg/mL BIRB796; read-out: LPS Induced Release TNFα REC50 (dU937). The procedure:
as §1

Test [7] relates to ICAM-1. In words: Poly I:C-induced ICAM-1 expression in BEAS2B cells. Conditions: Homo sapiens, BEAS-2B, read-out: PolyIC/ICAM1 IC50 (BEAS2B). The procedure: Poly I:C was used in these studies as a simple, RNA virus mimic. Poly I:C-Oligofectamine mixture (1 μg/mL Poly I:C, ±2% Oligofectamine, 25 μL; Invivogen Ltd., San Diego, Calif., and Invitrogen, Carlsbad, Calif., respectively) was transfected into BEAS2B cells (human bronchial epithelial cells, ATCC). Cells were pre-incubated with final concentrations of test compounds for 2 hr and the level of ICAM-1 expression on the cell surface was determined by cell-based ELISA. At a time point 18 hr after poly I:C transfection, cells were fixed with 4% formaldehyde in PBS (100 μL) and then endogenous peroxidase was quenched by the addition of washing buffer (100 μL, 0.05% Tween in PBS: PBS-Tween) containing 0.1% sodium azide and 1% hydrogen peroxide. Cells were washed with wash-buffer (3×200 μL). and after blocking the wells with 5% milk in PBS-Tween (100 μL) for 1 hr, the cells were incubated with anti-human ICAM-1 antibody (50 μL; Cell Signaling Technology, Danvers, Mass.) in 1% BSA PBS overnight at 4° C.
The cells were washed with PBS-Tween (3×200 μL) and incubated with the secondary antibody (100 μL; HRP-conjugated anti-rabbit IgG, Dako Ltd., Glostrup, Denmark). The cells were then incubated with of substrate (50 μL) for 2-20 min, followed by the addition of stop solution (50 μL, 1N H2SO4). The ICAM-1 signal was detected by reading […] the absorbance at 450 nm against a reference wavelength of 655 nm using a spectrophotometer. The cells were then washed with PBS-Tween (3×200 μL) and total cell numbers in each well were determined by reading absorbance at 595 nm after Crystal Violet staining (50 μL of a 2% solution in PBS) and elution by 1% SDS solution (100 μL) in distilled water. The measured OD 450-655 readings were corrected for cell number by dividing with the OD595 reading in each well. The inhibition of ICAM-1 expression was calculated at each concentration of test compound by comparison with vehicle control.

On to `COc1ccc(-n2nc(C(C)(C)C)cc2NC(=O)Nc2ccc(Oc3ccnc(Nc4ccccc4)n3)c3ccccc23)cc1` [Example 7, 1-(3-(tert-butyl)-1-(4-methoxyphenyl)-1H-pyrazol-5-yl)-3-(4-((2-(phenylamino)pyrimidin-4-yl)oxy)naphthalen-1-yl)urea], for which the inhibition at 0.04 µg/mL was no more than 0% in test [1] and 100% in test [3]. In test [2], the inhibition at 5 µg/mL came to 10.2%. In addition, the IC50 in test [4] is 2.1 nM; in test [5], 10 nM. The EC50 in test [6] amounted to 1.7 nM.

`Cc1ccc(-n2nc(C(C)(C)C)cc2NC(=O)Nc2ccc(Oc3ccnc(Nc4ccc(O)cc4O)n3)c3ccccc23)cc1` [Example 32, 1-(3-(tert-butyl)-1-(p-tolyl)-1H-pyrazol-5-yl)-3-(4-((2-((2,4-dihydroxyphenyl)amino)pyrimidin-4-yl)oxy)naphthalen-1-yl)urea]: the figures for the inhibition at 0.04 µg/mL in test [1] and in test [3] were 26% and 100%, respectively. For the same molecule, in test [2], the inhibition at 5 µg/mL came out at 33%. In addition, the IC50 in test [4] came out at 9.7 nM; in test [5] it was 14 nM. In test [6], the EC50 worked out at 12 nM.

Turning to `Cc1ccc(-n2nc(C(C)(C)C)cc2NC(=O)Nc2ccc(Oc3ccnc(Nc4ccc(C)c(O)c4)n3)c3ccccc23)cc1` [Example 26, 1-(3-(tert-butyl)-1-(p-tolyl)-1H-pyrazol-5-yl)-3-(4-((2-((3-hydroxy-4-methylphenyl)amino)pyrimidin-4-yl)oxy)naphthalen-1-yl)urea], the IC50 in test [7] amounted to 8.4 nM; in test [4], 6.6 nM; in test [5], 1.9 nM. Moreover, the inhibition at 0.04 µg/mL was 69% in test [1] and 100% in test [3]. For the same molecule, in test [6], the EC50 came to 4.1 nM.

In the case of `Cc1ccc(-n2nc(C(C)(C)C)cc2NC(=O)Nc2ccc(Oc3ccnc(Nc4ccc(O)c(F)c4)n3)c3ccccc23)cc1` [Example 29, 1-(3-(tert-butyl)-1-(p-tolyl)-1H-pyrazol-5-yl)-3-(4-((2-((3-fluoro-4-hydroxyphenyl)amino)pyrimidin-4-yl)oxy)naphthalen-1-yl)urea], the IC50 in test [7] worked out at 2.8 nM; in test [4], 2.3 nM; in test [5] it was 1.6 nM. Moreover, the results for the inhibition at 0.04 µg/mL in test [1] and in test [3] were 13% and 100%, respectively. The EC50 in test [6] was 11 nM.

For `Cc1ccc(-n2nc(C(C)(C)C)cc2NC(=O)Nc2ccc(Oc3ccnc(Nc4ccc(Cl)cc4)n3)c3ccccc23)cc1` [Example 16, 1-(3-(tert-butyl)-1-(p-tolyl)-1H-pyrazol-5-yl)-3-(4-((2-((4-chlorophenyl)amino)pyrimidin-4-yl)oxy)naphthalen-1-yl)urea], the figures for the IC50 in test [7], in test [4] and in test [5] were 36 nM, 0.31 nM and 4.1 nM, respectively. Besides, the inhibition at 0.04 µg/mL in test [1] was 10%; in test [3], 100%. In addition, the EC50 in test [6] was determined as 1.1 nM.

For `COc1cc(Nc2nccc(Oc3ccc(NC(=O)Nc4cc(C(C)(C)C)nn4-c4ccc(C)cc4)c4ccccc34)n2)ccc1O` [Example 25, 1-(3-(tert-butyl)-1-(p-tolyl)-1H-pyrazol-5-yl)-3-(4-((2-((4-hydroxy-3-methoxyphenyl)amino)pyrimidin-4-yl)oxy)naphthalen-1-yl)urea], the inhibition at 1 µg/mL in test [2] was 29.1%. For the same molecule, in test [2], the inhibition at 5 µg/mL was found to be 63.5%. In addition, the inhibition at 0.04 µg/mL in test [3] was determined as 100%. In addition, the IC50 in test [4] was 1.5 nM; in test [5], 0.4 nM. For the same molecule, in test [6], the EC50 stood at 0.84 nM.

In the case of `COc1ccc(-n2nc(C(C)(C)C)cc2NC(=O)Nc2ccc(Oc3ccnc(Nc4ccc(O)cc4)n3)c3ccccc23)cc1` [Example 33, 1-(3-(tert-butyl)-1-(4-methoxyphenyl)-1H-pyrazol-5-yl)-3-(4-((2-((4-hydroxyphenyl)amino)pyrimidin-4-yl)oxy)naphthalen-1-yl)urea], the figures for the inhibition at 0.04 µg/mL in test [1] and in test [3] were 44% and 100%, respectively. The inhibition at 5 µg/mL in test [2] was 67.2%. For the same molecule, the IC50 in test [4] was 6.3 nM; in test [5], 0.5 nM. Further, in test [6], the EC50 amounted to 7.4 nM.

Turning to `COc1ccc(Nc2nccc(Oc3ccc(NC(=O)Nc4cc(C(C)(C)C)nn4-c4ccc(C)cc4)c4ccccc34)n2)c(OC)c1` [Example 8, 1-(3-(tert-butyl)-1-(p-tolyl)-1H-pyrazol-5-yl)-3-(4-((2-((2,4-dimethoxyphenyl)amino)pyrimidin-4-yl)oxy)naphthalen-1-yl)urea], the inhibition at 0.04 µg/mL in test [1] and in test [3] was 100% throughout. Further, the inhibition at 1 µg/mL in test [2] came out at 15.6%. In addition, the IC50 was determined as 235 nM in test [4] and 225 nM in test [5]. Further, the EC50 in test [6] stood at 227 nM.

Regarding `COc1ccc(Nc2nccc(Oc3ccc(NC(=O)Nc4cc(C(C)(C)C)nn4-c4ccc(C)cc4)c4ccccc34)n2)cc1OC` [Example 27, 1-(3-(tert-butyl)-1-(p-tolyl)-1H-pyrazol-5-yl)-3-(4-((2-((3,4-dimethoxyphenyl)amino)pyrimidin-4-yl)oxy)naphthalen-1-yl)urea], the values for the inhibition at 0.04 µg/mL in test [1] and in test [3] were 51% and 100%, respectively. The inhibition at 5 µg/mL in test [2] is 11.2%. For the same molecule, the IC50 in test [4] is 2 nM; in test [5] it was 0.5 nM. In addition, the EC50 in test [6] is 0.54 nM.

Take `CC(C)(C)c1cc(NC(=O)Nc2ccc(Oc3ccnc(Nc4ccccc4)n3)c3ccccc23)n(-c2ccc(O)cc2)n1` [Example 3, 1-(3-(tert-butyl)-1-(4-hydroxyphenyl)-1H-pyrazol-5-yl)-3-(4-((2-(phenylamino)pyrimidin-4-yl)oxy)naphthalen-1-yl)urea]: the inhibition at 0.04 µg/mL in test [1] and in test [3] was 100% in each case. Besides, the results for the IC50 in test [4] and in test [5] were 1.8 nM and 1.2 nM, respectively. Besides, in test [6], the EC50 turned out to be 1.7 nM.
